Paper PMC6009888, “Design, synthesis, and pharmacological evaluation of 2-amino-5-nitrothiazole derived semicarbazones as dual inhibitors of monoamine oxidase and cholinesterase: effect of the size of aryl binding site” (Journal of Enzyme Inhibition and Medicinal Chemistry, 2017)
“Also recorded” adds a separate entry of the source.

Columns and labels:
mice = test: Neurotoxicity screening (rotarod test); assay type: in vivo; conditions: for Neurotoxicity (animals that exhibit toxicity / animals tested): 30 mg/kg i.p.; for Neurotoxicity (verdict in words): 30 mg/kg, relative to phenytoin
Procedure: The neurotoxicity screening was undertaken according to the method followed by the National Institute of Health, using their reported procedures[55]^,[56]. Male albino mice (CF-1 strain or Swiss, 18–25 g) were used as experimental animals. The animals were housed in metabolic cages, and allowed free access to food and water. The test compounds were suspended in 0.5% methylcellulose/water mixture or in polyethylene glycol (PEG 200).
Minimal motor impairment was measured in mice by the rotarod test. The mice were trained to stay on an accelerating rotarod that rotates at six revolutions per minute. The rod diameter was 3.2 cm. Trained animals were given i.p. injection of the selected inhibitors at a dose of 30 mg/kg. Neurotoxicity was indicated by the inability of the animal to maintain equilibrium on the rod for at least 1 min in each of the three trials.

[1] = In vitro DPPH radical scavenging assay; conditions: test sample 100 µg/ml, 100 µM methanolic DPPH, 30 min, 517 nm
Procedure: Antioxidant activity of the synthesised compounds (10 mg/ml) was evaluated using the radical scavenging capability against the stable free radical, 2,2′-diphenyl-1-picryl hydrazyl (DPPH·). The DPPH· scavenging capability was determined using UV based spectrophotometric assay. About 200 µl of the test sample solution (100 µg/ml) was added to 4 ml of 100 µM methanolic DPPH. […] Ascorbic acid (100 µg/ml) was used as reference. The percentage inhibition of DPPH activity was estimated using the formula: Percent (%) inhibition of DPPH activity = Acontrol-Asample/Acontrol×100 where Acontrol is the absorbance of DPPH· in methanol without an antioxidant and Asample is the absorbance of DPPH· in the presence of an antioxidant.

CC(=NNC(=O)Nc1ncc([N+](=O)[O-])s1)c1ccc(Br)cc1 [Compound 4, 1-(1-(4-Bromophenyl)ethylidene)-4-(5-nitrothiazol-2-yl)semicarbazide]
Neurotoxicity (animals that exhibit toxicity / animals tested) (mice; 0.5 h): 0/4 | Neurotoxicity (animals that exhibit toxicity / animals tested) (mice; 1 h): 0/4 | Neurotoxicity (animals that exhibit toxicity / animals tested) (mice; 2 h): 0/4 | Neurotoxicity (animals that exhibit toxicity / animals tested) (mice; 4 h): 0/4 | Neurotoxicity (verdict in words) (mice): non-neurotoxic | % inhibition of DPPH activity [1]: 58.68%

CC(=NNC(=O)Nc1ncc([N+](=O)[O-])s1)c1ccc(Cl)cc1 [Compound 5, 1-(1-(4-Chlorophenyl)ethylidene)-4-(5-nitrothiazol-2-yl)semicarbazide]
Neurotoxicity (animals that exhibit toxicity / animals tested) (mice; 0.5 h): 0/4 | Neurotoxicity (animals that exhibit toxicity / animals tested) (mice; 1 h): 0/4 | Neurotoxicity (animals that exhibit toxicity / animals tested) (mice; 2 h): 0/4 | Neurotoxicity (animals that exhibit toxicity / animals tested) (mice; 4 h): 0/4 | % inhibition of DPPH activity [1]: 51.83%

O=C(NN=C(c1ccc(Cl)cc1)c1ccc(Cl)cc1)Nc1ncc([N+](=O)[O-])s1 [Compound 19, 1-(Bis(4-chlorophenyl)methylene)-4-(5-nitrothiazol-2-yl)semicarbazide]
Neurotoxicity (animals that exhibit toxicity / animals tested) (mice; 0.5 h): 0/4 | Neurotoxicity (animals that exhibit toxicity / animals tested) (mice; 1 h): 0/4 | Neurotoxicity (animals that exhibit toxicity / animals tested) (mice; 2 h): 0/4 | Neurotoxicity (animals that exhibit toxicity / animals tested) (mice; 4 h): 0/4 | % inhibition of DPPH activity [1]: 24.03%

O=C(NN=C1C(=O)Nc2ccc(Br)cc21)Nc1ncc([N+](=O)[O-])s1 [Compound 21, 1-(5-Bromo-2-oxoindolin-3-ylidene)-4–(5-nitrothiazol-2-yl)semicarbazide]
Neurotoxicity (animals that exhibit toxicity / animals tested) (mice; 0.5 h): 1/4 | Neurotoxicity (animals that exhibit toxicity / animals tested) (mice; 1 h): 0/4 | Neurotoxicity (animals that exhibit toxicity / animals tested) (mice; 2 h): 0/4 | Neurotoxicity (animals that exhibit toxicity / animals tested) (mice; 4 h): 0/4 | Neurotoxicity (verdict in words) (mice): mildly neurotoxic; also recorded: slightly neurotoxic | % inhibition of DPPH activity [1]: 65.65%
